Columns and labels:
Human pancreatic lipase = target: T1, Human pancreatic lipase (Homo sapiens, UniProt P16233); experiment: Lipase assay (Sigma Lipase-PS Kit); type: biochemical; conditions: same top concentration (0.15 mg/ml)
T1 construct: purchased Sigma
T1 sequence (P16233 17-465): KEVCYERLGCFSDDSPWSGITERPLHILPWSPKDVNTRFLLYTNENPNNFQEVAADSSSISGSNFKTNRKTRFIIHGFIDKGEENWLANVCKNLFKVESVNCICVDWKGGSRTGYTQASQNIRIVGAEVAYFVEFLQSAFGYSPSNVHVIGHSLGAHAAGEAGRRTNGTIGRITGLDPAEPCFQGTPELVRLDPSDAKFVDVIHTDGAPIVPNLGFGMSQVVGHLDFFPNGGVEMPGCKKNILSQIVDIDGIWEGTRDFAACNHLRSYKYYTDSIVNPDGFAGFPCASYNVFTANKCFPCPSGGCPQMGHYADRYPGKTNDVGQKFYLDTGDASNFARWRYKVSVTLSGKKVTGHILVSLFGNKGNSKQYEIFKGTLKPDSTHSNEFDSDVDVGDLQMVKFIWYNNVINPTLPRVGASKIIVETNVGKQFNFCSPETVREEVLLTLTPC
T1 sequence (P02703 23-112 partner): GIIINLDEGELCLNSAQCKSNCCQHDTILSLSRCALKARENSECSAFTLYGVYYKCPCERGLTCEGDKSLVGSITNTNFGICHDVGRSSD
Description: (§1) The purified compounds and extracts were made up 2 mg/ml solutions in water using initially a drop of DMSO if required for solubility.
Sigma Lipase-PS Kit (Catalogue Number 805-A)
Human pancreatic lipase was diluted 1.5:5 prior to use. […] Color formation was measured at 550 nm after 30 minutes.

[1] = target: T2, porcine pancreatic amylase (Sus scrofa, UniProt P00690); experiment: Amylase assay (Sigma INFINITY reagent); type: biochemical, pig; conditions: tested at 0.12 mg/ml, mean n=3
T2 construct: purchased Sigma A6255
T2 sequence (P00690 16-511): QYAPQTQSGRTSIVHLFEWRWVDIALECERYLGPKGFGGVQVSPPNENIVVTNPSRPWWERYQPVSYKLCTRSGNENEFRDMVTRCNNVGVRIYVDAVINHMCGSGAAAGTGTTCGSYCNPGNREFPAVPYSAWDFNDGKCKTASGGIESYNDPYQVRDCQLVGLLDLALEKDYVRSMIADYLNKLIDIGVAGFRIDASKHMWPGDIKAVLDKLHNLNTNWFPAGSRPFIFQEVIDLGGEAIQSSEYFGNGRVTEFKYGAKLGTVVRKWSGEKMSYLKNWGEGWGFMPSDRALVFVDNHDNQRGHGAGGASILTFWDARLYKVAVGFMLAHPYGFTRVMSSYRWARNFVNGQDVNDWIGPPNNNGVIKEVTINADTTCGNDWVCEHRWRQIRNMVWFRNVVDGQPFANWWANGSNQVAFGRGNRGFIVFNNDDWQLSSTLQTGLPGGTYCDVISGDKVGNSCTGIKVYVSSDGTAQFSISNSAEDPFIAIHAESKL
Description: as §1
Sigma INFINITY Powder Reagent (Catalogue Number 568-20)
Sigma α-amylase (A6255, porcine pancreatic amylase as saline suspension), diluted to 35 units/ml. […] The rate of color formation was measured over five minutes, after which the final absorbance was measured at 405 nm as an endpoint recording.

[2] = tested on: α-glucosidase (G5003, from S. cerevisiae); experiment: α-Glucosidase assay (p-nitrophenyl-α-D-glucopyranoside); type: biochemical; conditions: tested at 0.28 mg/ml, mean n=3
Description: as §1

Compound	α-amylase inhibition (in words, FIG. 2) [1]	inhibition at 150 µg/mL (Human pancreatic lipase) [%]	α-glucosidase inhibition (in words, FIG. 2) [2]
CCCCCCCCCCC[C@@H](C[C@@H]1OC(=O)[C@H]1CCCCCC)OC(=O)[C@H](CC(C)C)NC=O [Orlistat]		≤ 60	
Oc1ccc(C=C2c3c(O)cc(O)cc3C(c3ccc(O)cc3)C2c2cc(O)ccc2O)cc1 (stereo not drawn) [compound 7, 3-(4-hydroxybenzylidene)-2-(2,5-dihydroxyphenyl)-1-(4-hydroxyphenyl)indane-4,6-diol]			fairly specific as an inhibitor
quercitrin-3-O″-acetate [compound 5]	inhibition to be restored		promoted the glucosidase activity

More lines, main results first:

α-amylase inhibition (in words, FIG. 2) [1]	Compound	inhibition at 150 µg/mL (Human pancreatic lipase) [%]	α-glucosidase inhibition (in words, FIG. 2) [2]
inhibition to be restored	COc1cc(O)c2c(=O)c(O[C@@H]3O[C@@H](C)[C@H](O)[C@@H](O)[C@H]3O)c(-c3ccc(O)c(O)c3)oc2c1 [compound 3, rhamnitrin]		
good inhibition	Oc1ccc(/C=C2\c3cc(O)cc(O)c3C(c3ccc(O)cc3)C2c2cc(O)cc(O)c2)cc1 (stereo not drawn) [compound 6, parthenocissin A]		

— patent US8362090B2, “Methods and related compositions using specific flavonoids and indanes to reduce weight and inhibit lipase, α-amylase and α-glucosidase activity in mammals” (Gateway Health Alliances, Inc., priority 2007, dated 2013)
